In brackets after ≈: the same amount, converted by molar mass. Several values for one entry are separate records, joined by “and”; a condition that tells them apart may be missing. Equal values may be shown once. Starred links: 1 amine or outer side, 2 acyl side, 3 side chain; linkers in the order of their positions; H or OH if unused. Non-standard residues stand in square brackets, D forms with d. Residues, ends and D or L forms follow the SMILES beside them. *: point of attachment. X2 = C=CCN([C@@H](C)C(=O)[*:2])[*:1]; X1 = O=C(CN(CC(Br)CBr)[*:1])[*:2]; X3 = O=C(CN(CC(Cl)CCl)[*:1])[*:2]; NAllylGly = C=CCNCC(=O)O; Boc = CC(C)(C)OC(=O)*
Experiments:
[1] = biological target: Human immunodeficiency virus type 1 protease (Human immunodeficiency virus 1) (UniProt Q72874); assay: Inhibitory activity against HIV-1 Protease using Suc-TLNFPIS-4-AMC as substrate in fluorescence assay at 10e-5 concentration
[2] = biological target: Human immunodeficiency virus type 1 protease (Human immunodeficiency virus 1) (UniProt Q72874); assay: Inhibitory activity against HIV-1 Protease using VSQNF(NO2)PIV as substrate in spectrophotometric assay at 10e-5 concentration
[3] = system: CCRF-CEM; assay: Compound was tested for antiviral activity against HIV-1 in CEM cells; type: functional, cell-based; conditions: Homo sapiens
[4] = Selectivity index between IC50 and EC50; type: functional
[5] = system: CCRF-CEM; assay: Dose required for reduce the reverse transcriptase activity in infected cell supernatant; type: functional, cell-based; conditions: Homo sapiens
[6] = biological target: Human immunodeficiency virus type 1 protease (Human immunodeficiency virus 1, UniProt Q72874); assay: Antiviral activity against HIV-1 in CEM cells.; type: functional, cell-based; conditions: ccrf-cem
[7] = system: CCRF-CEM; assay: Compound was tested for antiviral activity against HIV-1 in CEM cells; Non active compound; type: functional, cell-based, Homo sapiens

| Compound | inhibition [1] | inhibition [2] | EC50 [3] | Ratio [4] | EC50 [5] | EC50 [6] | IC50 [7] |
| --- | --- | --- | --- | --- | --- | --- | --- |
| CC[C@H](C)[C@H](NC(=O)CN(CC(Br)CBr)C(=O)[C@H](Cc1ccccc1)NC(=O)[C@H](C)NC(=O)OC(C)(C)C)C(=O)N[C@H](C(=O)OC)C(C)C (stereo partly specified) (Boc-AF[X1]IV-OMe) | 0% | 3% and 0% | 111 µg/mL (≈ 135 µM) | > 4.5 | 200 µg/mL (≈ 244 µM) | – | – |
| C=CCN(CC(=O)N[C@H](C(=O)N[C@H](C(=O)OC)C(C)C)[C@@H](C)CC)C(=O)[C@H](Cc1ccccc1)NC(=O)[C@H](C)NC(=O)[C@H](C)NC(=O)[C@H](CO)NC(=O)OC(C)(C)C (Boc-SAAF[NAllylGly]IV-OMe) | 0% | 14% and 0% | – | – | – | Not Active | – |
| C=CCN(C(=O)[C@H](Cc1ccccc1)NC(=O)[C@H](C)NC(=O)[C@H](C)NC(=O)[C@H](CO)NC(=O)OC(C)(C)C)[C@@H](C)C(=O)N[C@H](C(=O)N[C@H](C(=O)OC)C(C)C)[C@@H](C)CC (Boc-SAAF[X2]IV-OMe) | – | – | – | – | – | Not Active | – |
| C=CCN(C(=O)[C@H](Cc1ccccc1)NC(=O)[C@H](C)NC(=O)[C@H](C)NC(=O)OC(C)(C)C)[C@@H](C)C(=O)N[C@H](C(=O)N[C@H](C(=O)OC)C(C)C)[C@@H](C)CC (Boc-AAF[X2]IV-OMe) | 1% | 0% | – | – | – | Not Active | – |
| C=CCNCC(=O)N[C@H](C(=O)N[C@H](C(=O)OC)C(C)C)[C@@H](C)CC | – | – | – | – | – | Not Active | – |
| C=CCN(CC(=O)N[C@H](C(=O)N[C@H](C(=O)OC)C(C)C)[C@@H](C)CC)C(=O)[C@H](Cc1ccccc1)NC(=O)[C@H](C)NC(=O)[C@H](C)NC(=O)OC(C)(C)C (Boc-AAF[NAllylGly]IV-OMe) | 0% | 0% and 21% | – | – | – | Not Active | Not Active |
| C=CCN(CC(=O)N[C@H](C(=O)N[C@H](C(=O)OC)C(C)C)[C@@H](C)CC)C(=O)[C@@H](N)Cc1ccccc1 (H-F[NAllylGly]IV-OMe) | – | – | – | – | – | Not Active | – |
| C=CCN(CC(=O)N[C@H](C(=O)N[C@H](C(=O)OC)C(C)C)[C@@H](C)CC)C(=O)[C@H](Cc1ccccc1)NC(=O)OC(C)(C)C (Boc-F[NAllylGly]IV-OMe) | 0% | 10% and 13% | – | – | – | Not Active | – |
| CC[C@H](C)[C@H](NC(=O)CN(CC(Br)CBr)C(=O)[C@H](Cc1ccccc1)NC(=O)OC(C)(C)C)C(=O)N[C@H](C(=O)OC)C(C)C (stereo partly specified) | 0% | 8% and 10% | – | – | – | Not Active | – |
| C=CCN(CC(=O)N[C@H](C(=O)N[C@H](C(=O)OC)C(C)C)[C@@H](C)CC)C(=O)[C@H](Cc1ccccc1)NC(=O)[C@H](C)N (H-AF[NAllylGly]IV-OMe) | – | – | – | – | – | Not Active | – |
| CC[C@H](C)[C@H](NC(=O)CN(CC(Cl)CCl)C(=O)[C@H](Cc1ccccc1)NC(=O)OC(C)(C)C)C(=O)N[C@H](C(=O)OC)C(C)C (stereo partly specified) | 0% | 0% and 2% | – | – | – | Not Active | – |
| C=CCN(C(=O)[C@H](Cc1ccccc1)NC(=O)OC(C)(C)C)[C@@H](C)C(=O)N[C@H](C(=O)N[C@H](C(=O)OC)C(C)C)[C@@H](C)CC | 3% | 0% and 7% | – | – | – | Not Active | – |
| C=CCN(C(=O)[C@H](Cc1ccccc1)NC(=O)[C@H](C)NC(=O)OC(C)(C)C)[C@@H](C)C(=O)N[C@H](C(=O)N[C@H](C(=O)OC)C(C)C)[C@@H](C)CC (Boc-AF[X2]IV-OMe) | 0% | 0% and 9% | 80 µg/mL (≈ 119 µM) | > 2.51 | 60 µg/mL (≈ 89 µM) | – | – |
| C=CCN(CC(=O)N[C@H](C(=O)N[C@H](C(=O)OC)C(C)C)[C@@H](C)CC)C(=O)OC(C)(C)C | – | – | – | – | – | Not Active | – |
| CC[C@H](C)[C@H](NC(=O)CN(CC(Cl)CCl)C(=O)[C@H](Cc1ccccc1)NC(=O)[C@H](C)NC(=O)OC(C)(C)C)C(=O)N[C@H](C(=O)OC)C(C)C (stereo partly specified) (Boc-AF[X3]IV-OMe) | 0% | 0% and 12% | > 100 µg/mL | – | 100 µg/mL (≈ 137 µM) | – | – |
| C=CCN(CC(=O)N[C@H](C(=O)N[C@H](C(=O)OC)C(C)C)[C@@H](C)CC)C(=O)[C@H](Cc1ccccc1)NC(=O)[C@H](C)NC(=O)OC(C)(C)C (Boc-AF[NAllylGly]IV-OMe) | 0% | 1% and 4% | 8.15 µg/mL (≈ 12.4 µM) | 4.03 | 10 µg/mL (≈ 15.2 µM) | – | – |

Source: ChEMBL document CHEMBL1127713, “Anti-HIV activity of N-(2,3-dihalogenopropyl)- and N-allyl-glycine containing pentapeptides” (Bioorg Med Chem Lett, 1994)
